# Patent publication US20210045385A1, “PYRIDAZINONE-SUBSTITUTED KETOXIMES AS HERBICIDES” (FMC Corporation, priority 2018, published 2021)
# What was measured:
# Type in all cases: in vivo
# [1] = tested on: foxtail, giant (giant foxtail, Setaria faberii); assay: Test A postemergence, visual plant response rating; settings: for Foxtail, Giant plant response rating (0 to 100 scale): 500 g ai/ha, postemergence, 0 is no effect, 100 is complete control; for Foxtail, Giant plant response rating: Postemergence, 125 g ai/ha, 0 to 100 scale (0 no effect, 100 complete control)
# Summary of the method: (§1)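 Preemergence: seeds in loam/sand blend given directed soil spray of compound in non-phytotoxic solvent with surfactant. Postemergence: plants 2–10 cm, one- to two-leaf stage, sprayed with same formulation. Visual injury rated vs untreated controls after ~10 days in greenhouse, 0 (no effect) to 100 (complete control).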
# [2] = tested on: ragweed (common ragweed, Ambrosia elatior); assay: Test A postemergence, visual plant response rating; settings: for Ragweed plant response rating (0 to 100 scale): 500 g ai/ha, postemergence, 0 is no effect, 100 is complete control; for Ragweed plant response rating: Postemergence, 125 g ai/ha, 0 to 100 scale (0 no effect, 100 complete control)
# Summary of the method: as §1
# [3] = tested on: galium (catchweed bedstraw, Galium aparine); assay: Test A postemergence, visual plant response rating; settings: for Galium plant response rating (0 to 100 scale): 500 g ai/ha, postemergence, 0 is no effect, 100 is complete control; for Galium plant response rating: Postemergence, 125 g ai/ha, 0 to 100 scale (0 no effect, 100 complete control)
# Summary of the method: as §1
# [4] = tested on: kochia (Kochia scoparia); assay: Test A postemergence, visual plant response rating; settings: for Kochia plant response rating (0 to 100 scale): 500 g ai/ha, postemergence, 0 is no effect, 100 is complete control; for Kochia plant response rating: Postemergence, 125 g ai/ha, 0 to 100 scale (0 no effect, 100 complete control)
# Summary of the method: as §1
# [5] = tested on: Italian ryegrass (Lolium multiflorum); assay: Test A postemergence, visual plant response rating
# Summary of the method: as §1
# [6] = tested on: pigweed (Amaranthus retroflexus); assay: Test A postemergence, visual plant response rating; settings: for Pigweed plant response rating (0 to 100 scale): 500 g ai/ha, postemergence, 0 is no effect, 100 is complete control; for Pigweed plant response rating: Postemergence, 125 g ai/ha, 0 to 100 scale (0 no effect, 100 complete control)
# Summary of the method: as §1
# [7] = tested on: barnyardgrass (Echinochloa crus-galli); assay: Test A postemergence, visual plant response rating; settings: for Barnyardgrass plant response rating (0 to 100 scale): 500 g ai/ha, postemergence, 0 is no effect, 100 is complete control; for Barnyardgrass plant response rating: Postemergence, 125 g ai/ha, 0 to 100 scale (0 no effect, 100 complete control)
# Summary of the method: as §1
# [8] = tested on: blackgrass (Alopecurus myosuroides); assay: Test A postemergence, visual plant response rating; settings: for Blackgrass plant response rating (0 to 100 scale): 500 g ai/ha, postemergence, 0 is no effect, 100 is complete control; for Blackgrass plant response rating: Postemergence, 125 g ai/ha, 0 to 100 scale (0 no effect, 100 complete control)
# Summary of the method: as §1
# [9] = tested on: corn (Zea mays); assay: Test A postemergence, visual plant response rating; settings: for Corn plant response rating (0 to 100 scale): 500 g ai/ha, postemergence, 0 is no effect, 100 is complete control; for Corn plant response rating: Postemergence, 125 g ai/ha, 0 to 100 scale (0 no effect, 100 complete control)
# Summary of the method: as §1
# [10] = tested on: wheat (Triticum aestivum); assay: Test A postemergence, visual plant response rating; settings: for Wheat plant response rating: 0 to 100 scale (0 no effect, 100 complete control)
# Summary of the method: as §1
# [11] = tested on: foxtail, giant (giant foxtail, Setaria faberii); assay: Test A preemergence, visual plant response rating; settings: for Foxtail, Giant plant response rating: 125 g ai/ha, preemergence, 0 to 100 scale, 0 no effect, 100 complete control; for Foxtail, Giant plant response rating (0 to 100 scale): 500 g ai/ha Preemergence, approx. 10 days
# Summary of the method: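 Greenhouse pot test in loam–sand soil mix: compound in a surfactant-containing non-phytotoxic solvent applied preemergence (directed soil spray) or postemergence (one- to two-leaf plants, 2–10 cm). Injury scored visually after ~10 days, 0–100.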
# [12] = tested on: ragweed (common ragweed, Ambrosia elatior); assay: Test A preemergence, visual plant response rating; settings: for Ragweed plant response rating: 125 g ai/ha, preemergence, 0 to 100 scale, 0 no effect, 100 complete control; for Ragweed plant response rating (0 to 100 scale): 500 g ai/ha Preemergence, approx. 10 days
# Summary of the method: as §1
# [13] = tested on: kochia (Kochia scoparia); assay: Test A preemergence, visual plant response rating; settings: for Kochia plant response rating: 125 g ai/ha, preemergence, 0 to 100 scale, 0 no effect, 100 complete control; for Kochia plant response rating (0 to 100 scale): 500 g ai/ha Preemergence, approx. 10 days
# Summary of the method: as §1
# [14] = tested on: Italian ryegrass (Lolium multiflorum); assay: Test A preemergence, visual plant response rating; settings: for Ryegrass, Italian plant response rating: 125 g ai/ha, preemergence, 0 to 100 scale, 0 no effect, 100 complete control; for Ryegrass, Italian plant response rating (0 to 100 scale): 500 g ai/ha Preemergence, approx. 10 days
# Summary of the method: as §1
# [15] = tested on: pigweed (Amaranthus retroflexus); assay: Test A preemergence, visual plant response rating; settings: for Pigweed plant response rating: 125 g ai/ha, preemergence, 0 to 100 scale, 0 no effect, 100 complete control; for Pigweed plant response rating (0 to 100 scale): 500 g ai/ha Preemergence, approx. 10 days
# Summary of the method: as §1
# [16] = tested on: barnyardgrass (Echinochloa crus-galli); assay: Test A preemergence, visual plant response rating; settings: for Barnyardgrass plant response rating: 125 g ai/ha, preemergence, 0 to 100 scale, 0 no effect, 100 complete control; for Barnyardgrass plant response rating (0 to 100 scale): 500 g ai/ha Preemergence, approx. 10 days
# Summary of the method: as §1
# [17] = tested on: sedge, umbrella (small-flower umbrella sedge, Cyperus difformis); assay: Test B flooded paddy test, visual plant response rating; settings: 250 g ai/ha, Flood, applied to paddy water, 2-leaf stage, evaluated after 13 to 15 days
# Summary of the method: (§2)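 Flooded-pot treatment: water 3 cm over the soil, chemical delivered into that water, depth unchanged for the duration. Assessed by eye versus controls following 13–15 greenhouse days; plants were at 2 leaves when dosed.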
# [18] = tested on: ducksalad (Heteranhera limosa); assay: as above; settings: 250 g ai/ha, Flood, applied to paddy water, 2-leaf stage, evaluated after 13 to 15 days
# Summary of the method: as §2
# [19] = tested on: rice (Oryza sativa); assay: as above; settings: 250 g ai/ha, Flood, applied to paddy water, 2-leaf stage, evaluated after 13 to 15 days
# Summary of the method: as §2
# [20] = tested on: barnyardgrass (Echinochloa crus-galli); assay: as above; settings: 250 g ai/ha, Flood, applied to paddy water, 2-leaf stage, evaluated after 13 to 15 days
# Summary of the method: as §2
# [21] = 500 g ai/ha, postemergence, 0 is no effect, 100 is complete control
SMILES,"Foxtail, Giant plant response rating (0 to 100 scale) [1]","Foxtail, Giant plant response rating [1]",Ragweed plant response rating (0 to 100 scale) [2],Ragweed plant response rating [2],Galium plant response rating (0 to 100 scale) [3],Galium plant response rating [3],Kochia plant response rating (0 to 100 scale) [4],Kochia plant response rating [4],"Ryegrass, Italian plant response rating (0 to 100 scale) [5, 21]",Pigweed plant response rating (0 to 100 scale) [6],Pigweed plant response rating [6],Barnyardgrass plant response rating (0 to 100 scale) [7],Barnyardgrass plant response rating [7],Blackgrass plant response rating (0 to 100 scale) [8],Blackgrass plant response rating [8],Corn plant response rating (0 to 100 scale) [9],Corn plant response rating [9],"Foxtail, Giant plant response rating [11]","Foxtail, Giant plant response rating (0 to 100 scale) [11]",Ragweed plant response rating [12],also measured
CCO/N=C(/c1c(O)c(Cl)nn(C)c1=O)c1cccc2ccccc12 [Compound 147],70,30,90,100,90,90,90,40,0,90,40,60,20,60,30,30,0,50,80,90,"Ryegrass, Italian plant response rating (0 to 100 scale) ([5]; Postemergence, rate not given, approx. 10 days): 0; Wheat plant response rating ([10]; Postemergence, 500 g ai/ha): 0; Wheat plant response rating (0 to 100 scale) ([10]; Postemergence, approx. 10 days): 0; Ragweed plant response rating (0 to 100 scale) [12]: 100; Kochia plant response rating [13]: 100; Kochia plant response rating (0 to 100 scale) [13]: 100; Ryegrass, Italian plant response rating [14]: 0; Ryegrass, Italian plant response rating (0 to 100 scale) [14]: 0; Pigweed plant response rating [15]: 60; Pigweed plant response rating (0 to 100 scale) [15]: 100; Barnyardgrass plant response rating [16]: 50; Barnyardgrass plant response rating (0 to 100 scale) [16]: 60; Plant response rating, Sedge, Umbrella (0 to 100 scale, 0 is no effect, 100 is complete control) [17]: 0; Plant response rating, Ducksalad (0 to 100 scale, 0 is no effect, 100 is complete control) [18]: 0; Plant response rating, Rice (0 to 100 scale, 0 is no effect, 100 is complete control) [19]: 0; Plant response rating, Barnyardgrass (0 to 100 scale, 0 is no effect, 100 is complete control) [20]: 0"
Cc1nn(C)c(=O)c(C(=NOCC=CCl)c2ccc(F)c3ccccc23)c1O [Compound 106],70,60,90,70,90,80,50,20,100,80,70,90,80,90,80,30,20,100,100,40,"Ryegrass, Italian plant response rating ([5]; Postemergence, 125 g ai/ha, 0 to 100 scale (0 no effect, 100 complete control)): 70; Wheat plant response rating (0 to 100 scale) [10, 21]: 50; Wheat plant response rating ([10]; Postemergence, 125 g ai/ha): 0; Ragweed plant response rating (0 to 100 scale) [12]: 80; Kochia plant response rating [13]: 0; Kochia plant response rating (0 to 100 scale) [13]: 20; Ryegrass, Italian plant response rating [14]: 60; Ryegrass, Italian plant response rating (0 to 100 scale) [14]: 90; Pigweed plant response rating [15]: 50; Pigweed plant response rating (0 to 100 scale) [15]: 80; Barnyardgrass plant response rating [16]: 50; Barnyardgrass plant response rating (0 to 100 scale) [16]: 90; Plant response rating, Sedge, Umbrella (0 to 100 scale, 0 is no effect, 100 is complete control) [17]: 0; Plant response rating, Ducksalad (0 to 100 scale, 0 is no effect, 100 is complete control) [18]: 0; Plant response rating, Rice (0 to 100 scale, 0 is no effect, 100 is complete control) [19]: 0; Plant response rating, Barnyardgrass (0 to 100 scale, 0 is no effect, 100 is complete control) [20]: 0"
